Measured values published in patent US20230190707A1, “COMPOSITIONS AND METHODS FOR ENHANCING CANCER IMMUNOTHERAPY” (FRED HUTCHINSON CANCER CENTER, priority 2020, published 2023).
Like-named read-outs stand apart in the source and are kept apart here.

Assays:
[1] = system: CD8^+ T cell proliferation; assay: Mixed leukocyte reaction with BMDCs loaded with lysates of drug-treated MC38 cells; format: cell-based, mouse; conditions: wild-type BMDCs loaded with lysates of treated MC38 cells; day 5
Description: RBC lysed bone marrow obtained from the femurs and tibias of C57BL/6 or P2 microglobulin deficient mice (Jackson Laboratories Cat. 2087) were cultured with mouse IL-3 (PeproTech Cat. 213-13) and mouse FLT3 ligand (PeproTech Cat. 250-31L) both at 10 ng/mL each in RPMI+10% FCS for 7 days to generate bone marrow derived dendritic cells. Separately, […] MC38 treated with splicing inhibitors vs. DMSO or expressing chicken ovalbumin were harvested, washed and resuspended in sterile PBS, and subjected to five cycles of rapid freeze-thaw (alternating between 37° C. and dry ice/acetone) to generate a cell lysate. After brief centrifugation at 100×g, the soluble fraction in PBS was added to bone marrow derived DCs and left to incubate overnight for antigen phagocytosis in the presence of LPS (ThermoFisher Cat. 00-4976-93). DCs were subsequently washed three times to remove cell-free lysates and LPS and incubated in a 1:1 ratio with CFSE-labeled B6 splenic T cells (10^5 stimulators with 10^5 responders) as described above. The MLR was analyzed at day 5 by flow cytometry.

[2] = system: donor T cells; assay: CFSE adoptive T cell transfer with in vivo splicing modulator treatment; conditions: mouse, in vivo
Description: Splenic T cells were obtained from B6 or CD45.1 donors by CD5 positive selection (Miltenyi Biotec, Cat. 130-049-301), labeled with CellTrace CFSE (ThermoFisher Cat. C34570) at 10 μM, and adoptively transferred by tail vein injection into lethally irradiated B6, Balb/c, or LP/J recipients, with […] labeled donor T cells transferred per recipient. All recipients were irradiated on day −1 prior to adoptive T cell transfer with 7 Gy as a single fraction and continuously received splicing inhibitor drugs or vehicle control at the indicated doses, from day −1 until day of sacrifice, with the initial dose of drug at least 4 hours after lethal irradiation. Indisulam and MS-023 were solubilized for in vivo administration and animals were treated as above. Pladienolide B (Tocris, Cat. 6070) and GEX1A (Cayman Chemicals, Cat. 25136) were both dissolved in vehicle (10% ethanol and 4% Tween-80 in sterile PBS) and administered i.p., with pladienolide B dosed at 10 mg/kg every other day, and GEX1A dosed at 1.25 mg/kg every four days. For in vivo use, EPZ015666 was dissolved in DMSO and solubilized in 0.5% methylcellulose in water to 20 mg/mL; animals were treated daily with 200 mg/kg by oral gavage.

[3] = system: 501-MEL, A375, and SK-MEL-239; assay: RNA-seq splicing analysis, human tumor cell lines; format: cell-based; conditions: identical treatment
Description: Bulk lung and colon were homogenized using a Qiagen TissueRuptor. For all tissues and cell types, RNA was extracted using an RNeasy kit (Qiagen, Frederick, Md.) and quantified using a NanoDrop 8000 (ThermoFisher Scientific). A minimum of 500 ng of high-quality RNA (as determined by Agilent Bioanalyzer) per sample or replicate was used for library preparation. Poly(A)-selected, strand-specific (dUTP method) Illumina libraries were prepared with a modified TruSeq protocol and sequenced on the Illumina HiSeq 2000 (˜100M 2×101 bp paired-end reads per sample or replicate).
RNA-seq analysis was performed as previously described (Dvinge, H., et al. (2014). Sample processing obscures cancer-specific alterations in leukemic transcriptomes. Proc Natl Acad Sci USA 111, 16802-16807, incorporated herein by reference in its entirety). […] Aligned reads from these two mapping steps were merged to generate final BAM files for all subsequent analyses.
MISO v2.0 was used to quantify all expression of isoforms arising from exon skipping (cassette exons), competing 5′ splice site selection, competing 3′ splice site selection, and annotated intron retention. […]

[4] = system: OT-1 T cells; assay: Intracellular cytokine staining of OT-1 T cells; format: cell-based, mouse; conditions: higher doses
Description: OT-1 cells were prepared and incubated with ovalbumin-expressing tumors as described above in the LAMP-1 assay. For some experiments OT-1 cells were instead left unstimulated (DMSO) or treated with PMA 1 μg/mL+ionomycin 1 μM as a supraphysiologic stimulus. In all cases, T cells underwent a 5-6 hour incubation period in the presence of DMSO or splicing modulators at the indicated concentrations, and with brefeldin A and monensin present for the entire duration. Cells were subsequently washed, stained for surface markers, and then fixed/permeabilized for intracellular staining of the indicated cytokines according to manufacturer instructions (BD Biosciences).

[5] = system: bone marrow hematopoietic stem and progenitor cells; assay: M3434 methylcellulose colony assay; format: cell-based, mouse
Description: 25,000 red blood cell-lysed bone marrow mononuclear cells from C57BL/6 mice were plated in duplicates or triplicates in each well of a non-tissue-culture treated 6 well plate with M3434 methylcellulose media in the presence of splicing drugs at the indicated concentrations as per manufacturer's instructions (StemCell Technologies, Cat. 03434) and incubated for seven days prior to quantification of colonies by manual microscopy.

| SMILES | CD8^+ T cell proliferation vs DMSO- or no lysate-pulsed control BMDCs [1] | in vivo T cell proliferation or activation in response to alloantigen [2] | splicing changes in human cancer cells [3] | ability of OT-1 T cells to secrete IFNγ or TNFα [4] | hematopoiesis (colony formation) ([5]; micromolar doses, pladienolide B at nanomolar concentrations) | hematopoiesis (colony formation) [5] |
| --- | --- | --- | --- | --- | --- | --- |
| CC(C)Oc1ccc(-c2c[nH]cc2CN(C)CCN)cc1 [MS-023] | more strongly promoted CD8^+ T cell proliferation | minimal impairment | stereotyped and pervasive splicing changes | did not inhibit | intact |  |
| NS(=O)(=O)c1ccc(S(=O)(=O)Nc2cccc3c(Cl)c[nH]c23)cc1 [indisulam] | more strongly promoted CD8^+ T cell proliferation | minimal impairment | stereotyped and pervasive splicing changes | did not inhibit |  | intact |
